Positions count from the first letter of the chain named. Like-named read-outs stand apart in the source and are kept apart here.
Tests used:
human TYK2 I960V mutant = molecular target: T1, human TYK2 I960V mutant (Homo sapiens, UniProt P29597, I960V); assay: JAK Caliper enzyme end-point IC50 assay, human TYK2 I960V mutant; settings: read-out: Human TYK2 I960V IC50; ATP 1 mM; geometric mean ± SD
T1 sequence (P29597 897-1176 I960V limits assumed): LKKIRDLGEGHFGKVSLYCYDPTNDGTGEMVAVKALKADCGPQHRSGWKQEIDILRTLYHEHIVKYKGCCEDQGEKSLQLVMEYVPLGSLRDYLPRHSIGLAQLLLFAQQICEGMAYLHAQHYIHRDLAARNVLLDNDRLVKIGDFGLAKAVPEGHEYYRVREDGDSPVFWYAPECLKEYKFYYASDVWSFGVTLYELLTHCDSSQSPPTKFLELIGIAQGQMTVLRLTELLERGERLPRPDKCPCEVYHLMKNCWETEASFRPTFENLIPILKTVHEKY

human WT TYK2 = molecular target: T2, human WT TYK2 (Homo sapiens, UniProt P29597); assay: JAK Caliper enzyme end-point IC50 assay, human WT TYK2; assay type: biochemical; settings: ATP 1 mM; geometric mean ± SD
T2 construct: His-tagged recombinant human TYK2, mouse TYK2, and human TYK2 I960V mutant kinase domains were expressed in insect cell/baculovirus systems; His; made in house; host or cells: insect cell/baculovirus
T2 sequence (P29597 897-1176 limits assumed): T1 sequence (P29597 897-1176 I960V limits assumed) with V64I

mouse WT TYK2 = molecular target: T3, mouse WT TYK2 (Mus musculus, UniProt Q9R117); assay: JAK Caliper enzyme end-point IC50 assay, mouse WT TYK2; assay type: biochemical
T3 construct: His-tagged recombinant human TYK2, mouse TYK2, and human TYK2 I960V mutant kinase domains were expressed in insect cell/baculovirus systems; His; made in house; host or cells: insect cell/baculovirus
T3 sequence (Q9R117 894-1166 limits assumed): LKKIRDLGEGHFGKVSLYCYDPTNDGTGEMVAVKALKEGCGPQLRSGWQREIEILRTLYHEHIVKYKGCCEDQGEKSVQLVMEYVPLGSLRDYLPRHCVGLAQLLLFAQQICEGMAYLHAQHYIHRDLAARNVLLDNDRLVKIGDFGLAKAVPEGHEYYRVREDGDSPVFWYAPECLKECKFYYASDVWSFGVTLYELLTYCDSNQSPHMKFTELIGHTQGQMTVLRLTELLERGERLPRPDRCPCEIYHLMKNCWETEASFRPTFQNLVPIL

[1] = test system: IL-12/IL-18 induced IFNγ production; assay: PK/PD IL-12/18 induced interferonγ production model, wild type mice; assay type: in vivo, C57BL/6 wild type mice; settings: Mus musculus, 4 h, read-out: IC50 (IC50,u) for inhibition of IL-12/IL-18-induced IFNγ production
[2] = test system: IL-12 (TYK2/JAK2) induced pSTAT4; assay: Phospho-STAT inhibition in lymphocytes, IL-12, monkey; assay type: cell-based, monkey (cynomolgus); settings: Primates, Leukocyte, read-out: IL-12 (TYK2/JAK2) induced pSTAT4 IC50, Monkey WT
[3] = test system: IL-15 (JAK1/JAK3) induced pSTAT5; assay: Phospho-STAT inhibition in lymphocytes, IL-15, mouse WT; assay type: cell-based, mouse (C57BL/6); settings: Leukocyte, read-out: IL-15 (JAK1/JAK3) induced pSTAT5 IC50, Mouse WT
[4] = test system: IL-12 (TYK2/JAK2) induced pSTAT4; assay: Phospho-STAT inhibition in lymphocytes, IL-12, dog; assay type: cell-based, dog (Beagle); settings: Canis lupus familiaris, Leukocyte, read-out: IL-12 (TYK2/JAK2) induced pSTAT4 IC50, Dog WT
[5] = test system: IL-12/IL-18 induced IFNγ production; assay: PK/PD IL-12/18 induced interferonγ production model, TYK2 V980I mice; assay type: in vivo, C57BL/6 TYK2 V980I mice; settings: Mus musculus, 4 h, read-out: IC50 (IC50,u) for inhibition of IL-12/IL-18-induced IFNγ production
[6] = test system: IL-12 (TYK2/JAK2) induced pSTAT4; assay: Phospho-STAT inhibition in lymphocytes, IL-12, human; assay type: cell-based; settings: geomean ± SD, four experiments
[7] = test system: IL-12 (TYK2/JAK2) induced pSTAT4; assay: Phospho-STAT inhibition in lymphocytes, IL-12, mouse WT; assay type: cell-based, mouse (C57BL/6); settings: Leukocyte, read-out: IL-12 (TYK2/JAK2) induced pSTAT4 IC50, Mouse WT
[8] = test system: IL-12 (TYK2/JAK2) induced pSTAT4; assay: Phospho-STAT inhibition in lymphocytes, IL-12, mouse V980I knock-in; assay type: cell-based, mouse (C57BL/6 TYK2 V980I knock-in); settings: Lymphocyte, read-out: IL-12 (TYK2/JAK2) induced pSTAT4 IC50, Mouse V980I KI
[9] = test system: IL-15 (JAK1/JAK3) induced pSTAT5; assay: Phospho-STAT inhibition in lymphocytes, IL-15, human; assay type: cell-based; settings: Leukocyte, read-out: IL-15 (JAK1/JAK3) induced pSTAT5 IC50, Human WT

Row | SMILES | IC50 (human TYK2 I960V mutant) | IC50 (human WT TYK2) | IC50 (mouse WT TYK2; ATP 1 mM, geometric mean ± SD) | other results
1 | Cn1cc(Nc2ncc(Cl)c(N3C[C@H]4CC[C@@H](C3)N4C(=O)[C@@H]3CC3(F)F)n2)cn1 [Compound 29] | 30 ± 1 nM | 8 ± 4 nM | 100 ± 17 nM | –
2 | C[C@@H]1[C@@H]2CN(c3nc(Nc4cnn(C)c4)ncc3F)C[C@]12NC(=O)[C@@H]1CC1(F)F [PF-06673518] | – | – | – | IC50 [1]: 1280 nM; IC50 [2]: 527 ± 147 nM; IC50 [3]: 127 ± 6.7 nM; IC50 [4]: 679 ± 254 nM; IC50 [5]: 26.6 nM; IC50 ([6]; Homo sapiens, Leukocyte, read-out: IL-12 (TYK2/JAK2) induced pSTAT4 IC50, Human WT, human leukocytes, no serum or other proteins): 64 nM; IC50 ([6]; read-out: IL-12 (TYK2/JAK2) induced pSTAT4 IC50, Human WT, human leukocytes, no serum or other proteins): 64.3 ± 10 nM; IC50 [7]: 518 ± 84 nM; IC50 [8]: 128 ± 11 nM; IC50 [9]: 135 ± 15 nM; IC50 (mouse WT TYK2): 1410 nM
3 | CNC(=O)c1ncc(Nc2nccc(N3C[C@H]4C[C@@]4(NC(=O)C4CC4)C3)n2)cc1C [Compound 19] | 7390 ± 1950 nM | 208 ± 51 nM | 8160 ± 2030 nM | –
4 | C[C@@H]1C2CN(c3nc(Nc4cn[nH]c4)ncc3F)C[C@@]21NC(=O)[C@H]1CC1(F)F (some centres unmarked) [Compound 23] | 388 ± 50 nM | 13 ± 4 nM | 466 ± 78 nM | –
5 | Cn1cc(Nc2nccc(N3C[C@H]4CC[C@@H](C3)N4CCC#N)n2)cn1 [Compound 22] | 1020 ± 263 nM | 73 ± 18 nM | 1330 ± 396 nM | –
6 | Cn1cc(Nc2ncc(F)c(N3C[C@H]4C[C@@]4(NC(=O)[C@@H]4CC4(F)F)C3)n2)cn1 [Compound 26] | 1560 ± 257 nM | 38 ± 8 nM | 2120 ± 465 nM | –

Continued, in another order:

Row | IC50 (human TYK2 I960V mutant) | IC50 (human WT TYK2) | IC50 (mouse WT TYK2; ATP 1 mM, geometric mean ± SD) | SMILES | other results
7 | 3590 ± 257 nM | 371 ± 37 nM | 5240 ± 605 nM | CCNC(=O)c1ccc(Nc2ncc(C)c(N3C[C@H]4C[C@@H]3CN4S(C)(=O)=O)n2)cc1 [Compound 15] | –
8 | 484 ± 369 nM | 50 ± 46 nM | 1160 ± 1040 nM | Cc1cnc(Nc2cnn(C)c2)nc1N1C[C@H]2[C@@H](C)[C@@]2(NC(=O)C2CC2)C1 [Compound 21] | –
9 | 538 ± 622 nM | 35 ± 34 nM | 841 ± 989 nM | CCNC(=O)c1ncc(Nc2ncc(Cl)c(N3C[C@H]4C[C@@]4(NC(=O)C4CC4)C3)n2)cc1C [Compound 18] | –
10 | 435 ± 174 nM | 67 ± 21 nM | 784 ± 207 nM | Cc1cnc(Nc2cnn(CCO)c2)nc1N1CC2C[C@@]2(NC(=O)C2CC2)C1 (some centres unmarked) [Compound 20] | –
11 | 1220 ± 220 nM | 46 ± 11 nM | 1520 ± 217 nM | CCNC(=O)c1ncc(Nc2ncc(F)c(N3C[C@H]4CC[C@@H](C3)N4CCC#N)n2)cc1C [Compound 17] | –
12 | 55 ± 25 nM | 15 ± 6 nM | 180 ± 89 nM | Cc1cnc(Nc2cnn(C)c2)nc1N1C[C@H]2CC[C@@H](C1)N2C(=O)[C@@H]1CC1(F)F [Compound 28] | –
13 | 2570 ± 1560 nM | 135 ± 89 nM | 3580 ± 1980 nM | CCNC(=O)c1ccc(Nc2nccc(N3C[C@H]4C[C@@H](C3)N4C(=O)C(F)(F)F)n2)cc1 [Compound 16] | –
